Values of other authors, collected in US7094735B2, “Herbicide microemulsion-forming-concentrates, microemulsions, and methods” (priority 2001, dated 2006).

conditions: Table 1, exemplary pKa values of acidic herbicides

Molecule | pKas
O=C(O)CCCOc1ccc(Cl)cc1Cl [2,4-DB] | 4.8
O=C(O)c1cc(Oc2ccc(C(F)(F)F)cc2Cl)ccc1[N+](=O)[O-] [Acifluorfen] | 3.86
N#Cc1cc(Br)c(O)c(Br)c1 [Bromoxynil] | 4.06
COc1c(Cl)ccc(Cl)c1C(=O)O [Dicamba, 3,6-dichloro-O-anisic acid] | 1.87
CC(Oc1ccc(Cl)cc1Cl)C(=O)O (stereo not shown) [Dichlorprop] | 2.86
CC(Oc1ccc(Oc2ccc(Cl)cc2Cl)cc1)C(=O)O (stereo not shown) [Diclofop] | 3.57
C[C@@H](Oc1ccc(Oc2ccc(C(F)(F)F)cn2)cc1)C(=O)O [Fluazifop-p] | 2.98
CC(Oc1ccc(Oc2ncc(C(F)(F)F)cc2Cl)cc1)C(=O)O (stereo not shown) [Haloxyfop] | 4.33
CC(C)C1(C)N=C(c2nc3ccccc3cc2C(=O)O)NC1=O (stereo not shown) [Imazaquin] | 3.8
CCc1cnc(C2=NC(C)(C(C)C)C(=O)N2)c(C(=O)O)c1 (stereo not shown) [Imazethapyr] | 3.9
N#Cc1cc(I)c(O)c(I)c1 [Ioxynil] | 3.96
Nc1c(Cl)c(Cl)nc(C(=O)O)c1Cl [Picloram] | 2.3
O=C(O)c1c(Cl)ccc2cc(Cl)cnc12 [Quinclorac] | 4.34
CCC/C(=N\OCC)C1=C(O)CC(CC(C)SCC)CC1=O (stereo not shown) [Sethoxydim] | 4.16
O=C(O)COc1nc(Cl)c(Cl)cc1Cl [Triclopyr, 3,5,6-trichloro-2-pyridyloxyacetic acid] | 2.68
Imazamethbenz | 2.9
